ChEMBL document CHEMBL1201862, “PubChem BioAssay data set” (2004)
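A five-concentration, 48-hour dose response in 96-well plates underlies each endpoint, interpolated linearly between surrounding concentrations. At the GI50, growth is halved.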 Activity calls are given as the source filed them. Cut-off read from the data, not from the text of the source: active = GI50 up to about 1.1 µM and inactive = higher.

Legend:
Experiment in all cases: inhibition of tumour cell growth, NCI panel, 48 h
HOP-92 = system: HOP-92
A498 = system: A498
SF-539 = system: SF-539
SF-268 = system: SF-268
MDA-N = system: MDA-N
MCF7 = system: MCF7
SNB-75 = system: SNB-75
Malme-3M = system: Malme-3M
M14 = system: M14
NCI/ADR-RES = system: NCI/ADR-RES
SK-MEL-28 = system: SK-MEL-28
NCI-H460 = system: NCI-H460
COLO 205 = system: COLO 205
MOLT-4 = system: MOLT-4
HCT-116 = system: HCT-116
SK-MEL-5 = system: SK-MEL-5
K562 = system: K562

SMILES | GI50 (HOP-92) | GI50 (A498) | GI50 (SF-539) | GI50 (SF-268) | GI50 (MDA-N) | GI50 (MCF7) | GI50 (SNB-75) | GI50 (Malme-3M) | GI50 (M14) | GI50 (NCI/ADR-RES) | GI50 (SK-MEL-28) | GI50 (NCI-H460) | GI50 (COLO 205) | GI50 (MOLT-4) | GI50 (HCT-116) | GI50 (SK-MEL-5) | GI50 (K562)
CN(C)c1ccc(/C=C2\N=C(NNc3ccccc3)NC2=O)cc1 | 17.3 µM (inactive) | 17.1 µM (inactive) | 19.5 µM (inactive) | 27.3 µM (inactive) | 27.7 µM (inactive) | 17.9 µM (inactive) | 25.5 µM (inactive) | 38.2 µM (inactive) | 37.3 µM (inactive) | 19.8 µM (inactive) | 29.1 µM (inactive) | 19.1 µM (inactive) | 15.6 µM (inactive) | < 0.01 µM (active) | 22.9 µM (inactive) |  | 
CCOC(=O)C1(N)CC1 | > 100 µM (inactive) | > 100 µM (inactive) | > 100 µM (inactive) | > 100 µM (inactive) | > 100 µM (inactive) | > 100 µM (inactive) | > 100 µM (inactive) | > 100 µM (inactive) | > 100 µM (inactive) | > 100 µM (inactive) | > 100 µM (inactive) | > 100 µM (inactive) |  | > 100 µM (inactive) | > 100 µM (inactive) | > 100 µM (inactive) | > 100 µM (inactive)
COc1ccc(/C=C2/NC(=S)N=C2Cl)cc1 | > 100 µM (inactive) | > 100 µM (inactive) | > 100 µM (inactive) | > 100 µM (inactive) | > 100 µM (inactive) | > 100 µM (inactive) | > 100 µM (inactive) | > 100 µM (inactive) | > 100 µM (inactive) | > 100 µM (inactive) | > 100 µM (inactive) |  | > 100 µM (inactive) | > 100 µM (inactive) | > 100 µM (inactive) | > 100 µM (inactive) | > 100 µM (inactive)
COc1ccccc1N1C(=O)/C(=C\c2cccc(Oc3ccccc3)c2)S(=O)(=O)C1c1ccccc1 (stereo not given) | 14.5 µM (inactive) | 49.8 µM (inactive) |  |  | 36.4 µM (inactive) | 27.4 µM (inactive) |  | 69.3 µM (inactive) | 50 µM (inactive) | 2.92 µM (inactive) | 71.1 µM (inactive) | 53.7 µM (inactive) | 23.1 µM (inactive) | 4.92 µM (inactive) | 23.8 µM (inactive) | 21.5 µM (inactive) | 17.3 µM (inactive)
CC(C)=CCCC1(Sc2ccccc2)C(=O)OCC1C=C(C)C (stereo not given) |  | 52.4 µM (inactive) | 20.6 µM (inactive) | 38.6 µM (inactive) | 19.9 µM (inactive) | 38.9 µM (inactive) | 36.6 µM (inactive) | 17.5 µM (inactive) | 17.3 µM (inactive) | 21.2 µM (inactive) | 47.3 µM (inactive) | 18.3 µM (inactive) | 23.2 µM (inactive) | 7.31 µM (inactive) | 11.5 µM (inactive) | 20.3 µM (inactive) | 
COc1ccc(S(=O)(=O)N2C(=O)CCC2C(=O)NC(N)=O)cc1 (stereo not given) | > 100 µM (inactive) | > 100 µM (inactive) | > 100 µM (inactive) |  | > 100 µM (inactive) | > 100 µM (inactive) | 0.381 µM (active) | > 100 µM (inactive) | > 100 µM (inactive) | > 100 µM (inactive) | > 100 µM (inactive) | > 100 µM (inactive) | > 100 µM (inactive) | > 100 µM (inactive) | > 100 µM (inactive) | > 100 µM (inactive) | > 100 µM (inactive)
O=C(N/N=C(COc1ccc(Cl)cc1)\N=C\c1cccnc1)c1ccncc1 | 24.2 µM (inactive) | 52.6 µM (inactive) | 57.3 µM (inactive) | 63.8 µM (inactive) | 25.5 µM (inactive) | > 100 µM (inactive) | 55.3 µM (inactive) | 49.7 µM (inactive) | > 100 µM (inactive) | 57.4 µM (inactive) | > 100 µM (inactive) | > 100 µM (inactive) | 96.8 µM (inactive) | 84.3 µM (inactive) | > 100 µM (inactive) |  | 64.4 µM (inactive)
Cc1cn(C2CC(SCCO)C(CO)O2)c(=O)[nH]c1=O (stereo not given) | > 100 µM (inactive) | > 100 µM (inactive) | > 100 µM (inactive) | > 100 µM (inactive) | > 100 µM (inactive) | > 100 µM (inactive) | > 100 µM (inactive) | > 100 µM (inactive) | > 100 µM (inactive) | > 100 µM (inactive) | > 100 µM (inactive) | > 100 µM (inactive) | > 100 µM (inactive) | > 100 µM (inactive) | > 100 µM (inactive) |  | > 100 µM (inactive)
COc1ccc2c(c1OC)C(C(Cl)(Cl)Cl)N1CCc3cc4c(cc3C1=C2)OCO4 (stereo not given) | 23.9 µM (inactive) | 67.6 µM (inactive) | 35 µM (inactive) | 3.41 µM (inactive) | 15.4 µM (inactive) | 28.1 µM (inactive) | 46.5 µM (inactive) | 11.5 µM (inactive) | 28.4 µM (inactive) | 44.6 µM (inactive) | 12 µM (inactive) | 10.7 µM (inactive) | 5.45 µM (inactive) | 16 µM (inactive) | 10.6 µM (inactive) | 3.94 µM (inactive) | 
